#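 96-well plates; 48 h exposure; 5 concentrations. Endpoints by linear interpolation between flanking doses. Not reached: highest tested concentration assigned. GI50 = concentration required for 50% inhibition of growth. TGI marks complete inhibition of growth.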
# How the values were obtained:
# Test in all cases: NCI tumour cell line growth inhibition, 48 h
# [1] = test system: A549 NSCLC
# [2] = test system: MOLT-4 leukemia
# [3] = test system: NCI/ADR-RES ovarian
# [4] = test system: SN12C renal
# [5] = test system: RPMI-8226 leukemia
# [6] = test system: MCF7 breast
# [7] = test system: HT29 colon
# [8] = test system: OVCAR-5 ovarian
# [9] = test system: NCI-H522 lung
# [10] = test system: CCRF-CEM leukemia
SMILES,TGI [1],TGI [2],TGI [3],TGI [4],TGI [5],TGI [6],TGI [7],TGI [8],TGI [9],TGI [10],GI50 [1],GI50 [2],GI50 [3],GI50 [4],GI50 [5],GI50 [6],GI50 [7],GI50 [8],GI50 [9],GI50 [10]
COc1ccc(OC)c2cc(Cc3ccc(N(C)C)cc3)c(=O)c(Cc3ccc(N(C)C)cc3)cc12,> 100 µM,> 100 µM,> 100 µM,> 100 µM,84.5 µM,> 100 µM,> 100 µM,> 100 µM,89.9 µM,> 100 µM,,,,,,,,,,
COc1ccc2c(c1)CCc1c-2n(CCN(C)C)c2ccc(OC)cc12,> 100 µM,59.1 µM,46.1 µM,> 100 µM,65.9 µM,69.9 µM,> 100 µM,51.6 µM,75.9 µM,9.5 µM,,,,,,,,,,
CSc1ncc2c(n1)-c1ccccc1OC2N1CCCC1 (stereo not given),> 100 µM,> 100 µM,> 100 µM,> 100 µM,> 100 µM,> 100 µM,> 100 µM,> 100 µM,> 100 µM,> 100 µM,,,,,,,,,,
CCN(CC)CCCNc1ccc2nnn3c4ccc(O)cc4c(=O)c1c23,10.3 µM,18.5 µM,22.9 µM,20.7 µM,32.2 µM,34 µM,14.1 µM,26.8 µM,24.3 µM,39.8 µM,,,,,,,,,,
CC(C)(C)N1Cc2ccccc2/C(=C/Sc2ccccc2)C1=O,37.6 µM,48.4 µM,33.6 µM,23.8 µM,26 µM,24.3 µM,35.6 µM,39.8 µM,11.4 µM,> 100 µM,,,,,,,,,,
CN(C(=O)c1ccc(Cl)s1)C(=S)N(C)C(=O)c1ccc(Cl)s1,> 10 µM,> 10 µM,> 10 µM,> 10 µM,> 10 µM,> 10 µM,> 10 µM,> 10 µM,> 10 µM,> 10 µM,,,,,,,,,,
Cc1[nH]c(-c2ccccc2)c(-c2ccc(Cl)cc2)c1C(=O)ONC(=O)c1ccccc1,10.4 µM,6.97 µM,14.2 µM,5.21 µM,> 48.4 µM,28 µM,22.9 µM,20 µM,5.42 µM,> 21.8 µM,,,,,,,,,,
Cc1cc(S(=O)(=O)Nc2nc(N)nc(N3N=CCC3C)n2)c(S)cc1Cl (stereo not given),> 10 µM,> 10 µM,> 10 µM,> 10 µM,> 10 µM,> 10 µM,> 10 µM,> 10 µM,> 10 µM,> 10 µM,,,,,,,,,,
COC(=O)C(COC(=O)/C=C/c1ccc(OC(C)=O)c(OC(C)=O)c1)OC(=O)/C=C/c1ccc(OC(C)=O)c(OC(C)=O)c1 (stereo not given),41.6 µM,7.2 µM,50.5 µM,27.8 µM,66.4 µM,21.8 µM,19.7 µM,36.8 µM,26.7 µM,50.6 µM,,,,,,,,,,
CCOC(=O)C1=C(C)NC(=S)NC1c1cccc(O)c1 (stereo not given),> 100 µM,> 100 µM,> 100 µM,> 95.3 µM,> 97 µM,> 100 µM,> 100 µM,> 100 µM,93.9 µM,> 89.9 µM,,,,,,,,,,
COc1cccc(-c2nc3sccn3c2-c2ccnc(NCCNC(=O)Nc3cccc(C(F)(F)F)c3)n2)c1,17.1 µM,9.94 µM,> 100 µM,26.5 µM,5.11 µM,13.3 µM,14 µM,52.2 µM,8.51 µM,> 100 µM,3.82 µM,3.27 µM,3.45 µM,4.03 µM,1.92 µM,3.12 µM,3.33 µM,6.37 µM,2.67 µM,3.43 µM
O=C(/C=C/c1ccc([N+](=O)[O-])cc1)c1nc2ccccc2[nH]1,> 100 µM,99.7 µM,> 100 µM,> 100 µM,33.3 µM,> 100 µM,> 100 µM,24.1 µM,> 100 µM,> 100 µM,,,,,,,,,,
CSCCC(NC(=O)OC(C)(C)C)C(=O)NCCNc1ccc(NCCNC(=O)C(CCSC)NC(=O)OC(C)(C)C)c2c1C(=O)c1ccccc1C2=O (stereo not given),7.93 µM,11.5 µM,> 100 µM,21 µM,12.2 µM,19.2 µM,7.51 µM,17.2 µM,3.38 µM,> 38 µM,,,,,,,,,,
CC[N+](C)(CC)CCN1C(=O)c2ccccc2S1(=O)=O,> 100 µM,> 100 µM,> 100 µM,> 100 µM,> 100 µM,> 100 µM,> 100 µM,> 100 µM,> 100 µM,> 100 µM,,,,,,,,,,
Cc1cc(S(=O)(=O)Nc2nnc3cc(C(F)(F)F)cc(C)n23)c(S)cc1Cl,52.8 µM,> 100 µM,> 100 µM,> 100 µM,> 100 µM,> 31.6 µM,> 100 µM,> 100 µM,> 100 µM,> 100 µM,,,,,,,,,,
CCCCN(c1ccccc1)c1ncnc2c1cnn2C,> 100 µM,40.8 µM,72.7 µM,> 100 µM,48 µM,> 100 µM,> 100 µM,> 100 µM,53.6 µM,49.6 µM,,,,,,,,,,
O=c1[nH]nc(Cc2ccc(Cl)cc2)n1O,> 100 µM,> 100 µM,> 100 µM,> 100 µM,> 100 µM,> 100 µM,> 100 µM,> 100 µM,> 100 µM,> 100 µM,,,,,,,,,,

SMILES,TGI [1],TGI [2],TGI [3],TGI [4],TGI [5],TGI [6],TGI [7],TGI [8],TGI [9],TGI [10],GI50 [1],GI50 [2],GI50 [3],GI50 [4],GI50 [5],GI50 [6],GI50 [7],GI50 [8],GI50 [9],GI50 [10]
NC(=O)CC(Nc1ncc2c(n1)-c1ccccc1OC2)C(=O)O (stereo not given),> 100 µM,> 100 µM,> 100 µM,> 100 µM,82.5 µM,> 100 µM,> 100 µM,> 100 µM,> 100 µM,> 100 µM,,,,,,,,,,
O=C1C=CC(=O)c2ncccc21,28.8 µM,> 24.1 µM,36.1 µM,16 µM,> 22 µM,25.8 µM,16.7 µM,32.2 µM,3.44 µM,3.29 µM,,,,,,,,,,
CCOP(=O)(OCC)C(Nc1ccc(F)cc1)c1cccc([N+](=O)[O-])c1 (stereo not given),> 100 µM,> 100 µM,> 100 µM,> 100 µM,> 100 µM,> 100 µM,> 100 µM,> 100 µM,> 100 µM,> 100 µM,,,,,,,,,,
Cc1ccc(O)c(C2=NNC(c3cccc(Br)c3)C2)c1 (stereo not given),> 100 µM,> 100 µM,> 100 µM,> 100 µM,> 100 µM,> 100 µM,> 100 µM,> 100 µM,> 100 µM,> 100 µM,,,,,,,,,,
N#CCc1nc(C#N)c(N)o1,> 100 µM,> 100 µM,> 100 µM,> 100 µM,> 100 µM,> 100 µM,> 100 µM,> 100 µM,> 100 µM,> 100 µM,,,,,> 100 µM,,,,,
CCOC(=O)c1c(N2CCOCC2)[nH]c(=O)c(C(c2ccc(OC)cc2)c2c(O)c(C(=O)OCC)c(N3CCOCC3)[nH]c2=O)c1O,> 100 µM,> 100 µM,> 100 µM,> 100 µM,> 100 µM,> 100 µM,> 100 µM,> 100 µM,> 100 µM,> 100 µM,,,,,,,,,,
O=C(NNC(=S)Nc1ccccc1)c1csc(NC(=S)NC2CCCCC2)n1,> 100 µM,> 100 µM,> 100 µM,> 100 µM,> 100 µM,> 100 µM,> 100 µM,> 100 µM,> 100 µM,> 100 µM,,,,,,,,,,
CC#CC(O)(C(=O)OC1CCCN(C)C1)C1=CC=CCC1 (stereo not given),> 100 µM,> 100 µM,> 100 µM,> 100 µM,> 100 µM,> 100 µM,> 100 µM,> 100 µM,> 100 µM,> 100 µM,,,,,,,,,,
CCOC(=O)C(Cc1ccccc1)(Cc1ccc(O)cn1)NC(=O)c1ccccc1 (stereo not given),> 100 µM,> 100 µM,> 100 µM,,> 100 µM,51.5 µM,81 µM,> 100 µM,53.8 µM,> 100 µM,,,,,,,,,,
CCOC(=O)C(O)(NC(C)=O)C(F)(F)F (stereo not given),> 100 µM,> 100 µM,> 100 µM,> 100 µM,> 100 µM,> 100 µM,> 100 µM,> 100 µM,> 100 µM,> 100 µM,,,,,,,,,,
O=C1OS2(OCc3cccc4cccc2c34)c2ccccc21 (stereo not given),> 100 µM,> 100 µM,> 100 µM,> 100 µM,> 100 µM,> 100 µM,> 100 µM,> 100 µM,> 100 µM,> 100 µM,,,,,,,,,,
N#CCCN(CCCN(C(=O)Nc1ccccc1)c1ccccc1)C(=O)Nc1ccccc1,> 100 µM,> 100 µM,> 100 µM,> 100 µM,> 100 µM,> 100 µM,> 100 µM,> 100 µM,> 100 µM,> 100 µM,,,,,,,,,,
Cc1ccc(S(=O)(=O)N2CCN(CCN(C)CCN3CCN(S(=O)(=O)c4ccc(C)cc4)CC3)CC2)cc1,76.1 µM,36 µM,43.1 µM,37.6 µM,37 µM,32.8 µM,29.9 µM,80.8 µM,38.9 µM,44.2 µM,,,,,,,,,,
CCOC(=O)c1sc2c(c1OC(=O)c1ccccc1)c(=O)n(-c1ccccc1)c(=S)n2-c1ccccc1,64.2 µM,> 100 µM,51 µM,> 100 µM,> 100 µM,> 100 µM,38.1 µM,> 100 µM,56.3 µM,> 100 µM,,,,,,,,,,
COc1ccc(-c2c(C#N)c(-c3ccccc3)n(NS(=O)(=O)c3ccccc3)c(=O)c2C#N)cc1,> 100 µM,91.2 µM,> 100 µM,> 100 µM,68.8 µM,> 100 µM,> 100 µM,> 100 µM,73.7 µM,> 100 µM,,,,,,,,,,
CC1(C)[C@@H]2C[C@H]1c1cnc(-c3ccccn3)cc1C2[C@@H]1c2cc(-c3ccccn3)ncc2[C@@H]2C[C@H]1C2(C)C (stereo not given in full),> 100 µM,> 100 µM,> 100 µM,> 100 µM,> 100 µM,> 100 µM,> 100 µM,> 100 µM,> 100 µM,> 100 µM,,,,,,,,,,

# Source: PubChem BioAssay (NCI)
